Test results published in PubChem BioAssay (NCI).
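Following 48 hours of exposure in 96-well plates, responses at five concentrations were used to interpolate endpoints linearly. The concentration for full growth arrest is given as TGI.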

Key:
Assay in all cases: growth of human tumour cells (NCI), 48 h
[1] = system: BT-549 breast
[2] = system: HT29 colon
[3] = system: KM12 colon
[4] = system: MCF7 breast
[5] = system: MDA-MB-231 breast
[6] = system: NCI/ADR-RES ovarian
[7] = system: OVCAR-4 ovarian
[8] = system: SNB-19 CNS
[9] = system: U251 CNS
[10] = system: UO-31 renal

Row | SMILES | TGI [1] | TGI [2] | TGI [3] | TGI [4] | TGI [5] | TGI [6] | TGI [7] | TGI [8] | TGI [9] | TGI [10]
1 | O=C(CCc1cccc(O)c1)NCCc1cccc(O)c1 | > 100 µM | > 100 µM | > 100 µM | > 100 µM | > 100 µM | > 100 µM | > 100 µM | > 100 µM | > 100 µM | > 100 µM
2 | COc1ccc(-c2oc3ccc(C)cc3c(=O)c2O)cc1 | > 100 µM | > 100 µM | > 100 µM | > 100 µM | > 100 µM | > 100 µM | > 100 µM | > 100 µM | > 100 µM | > 100 µM
3 | COc1ccc(C2SC(N)=Nc3c2c(C)nn3C(=O)c2ccncc2)cc1 (stereo not given) | > 100 µM | > 100 µM | > 100 µM | > 100 µM | > 100 µM | > 100 µM | > 100 µM | > 100 µM | > 100 µM | > 100 µM
4 | CSc1nc2ccccc2c(=O)n1/N=C1\C(=O)N(CN2CCOCC2)c2ccc(Cl)cc21 | 93.8 µM | > 100 µM | > 100 µM | > 100 µM | > 100 µM | > 100 µM | > 100 µM | > 100 µM | > 100 µM | > 100 µM
5 | O=[N+]([O-])c1ccc2c(c1)nc(Cc1ccccc1)n2C[C@@H]1CCCN2CCCCC12 (stereo not given in full) | > 100 µM | 49.2 µM | 55.4 µM | > 100 µM | 95.1 µM | > 100 µM | > 100 µM | > 100 µM | > 100 µM | 22.8 µM
6 | Cc1nc2c(cc1C(=O)NN)c(=O)n(C)c(=O)n2C | > 100 µM | > 100 µM | > 100 µM | > 100 µM | > 100 µM | > 100 µM | > 100 µM | > 100 µM | > 100 µM | > 100 µM
7 | COCn1c(C)c(C)c2c(=O)oc(=O)[nH]c21 | > 100 µM | > 100 µM | > 100 µM | > 100 µM | > 100 µM | > 100 µM | > 100 µM | > 100 µM | > 100 µM | > 100 µM
8 | CC/C(Cl)=N\OC(=O)Nc1ccc(OC)cc1 | 3.17 µM | 33.8 µM | 31.6 µM | 12.2 µM | 17.3 µM | 15 µM | 30.3 µM | 56.2 µM | > 57.2 µM | 20.8 µM
9 | CN(C)CCCn1c(Cc2ccccc2)nc2cc(C(F)(F)F)ccc21 | 92.4 µM | 42.4 µM | 31.3 µM | 39.3 µM | 73.3 µM | > 100 µM | > 100 µM | 86.9 µM | 38.8 µM | 5.32 µM
10 | CC(=O)NC1(C)CCC(C(C)(C)NC(C)=O)CC1 (stereo not given) | > 100 µM | > 100 µM | > 100 µM | > 100 µM | > 100 µM | > 100 µM | > 100 µM | > 100 µM | > 100 µM | > 100 µM
11 | COc1ccc2oc(S(=O)(=O)N3CC(CCl)c4ccc([N+](=O)[O-])cc43)cc2c1 (stereo not given) | 16.4 µM | 68 µM | 0.418 µM | 14.4 µM | 1.23 µM | 4.03 µM | > 100 µM | 29.2 µM | 0.348 µM | > 40.3 µM
12 | CCNc1nc(N)c(C(=O)c2ccc(Cl)cc2)s1 | > 100 µM | > 100 µM | > 100 µM | > 100 µM | > 100 µM | > 100 µM | > 100 µM | 58.8 µM | > 100 µM | 40.2 µM
13 | CC1(C)CCC[C@]2(C)[C@@H]1CC[C@@]13O[C@@H]1C1=C(CO)C(=O)O[C@]14O[C@@H]4[C@@H]23 | 31.8 µM | 26.2 µM | 63.8 µM | > 63.9 µM | 35.9 µM | 39.1 µM | 30 µM | 27.9 µM | 29.2 µM | 18.7 µM
14 | NNC(=O)CC(=O)Nc1ccc(Cl)cc1 | > 100 µM | > 100 µM | > 100 µM | > 100 µM | > 100 µM | > 100 µM | > 100 µM | > 100 µM | > 100 µM | > 100 µM
15 | COc1cc(/C=C2\C[C@H]3[C@@H]4CC=C5C[C@@H](N6CCCC6)CC[C@]5(C)[C@H]4CC[C@]3(C)[C@H]2O)cc(OC)c1OC | 30.1 µM | 14.5 µM | 23 µM | 22 µM | 33.6 µM | 40.8 µM | 51.1 µM | 35.8 µM | 28.8 µM | 6.6 µM
16 | COC(c1ccsc1)C(C#N)(C#N)N=Cc1ccsc1 (stereo not given) | 38.7 µM | 25.1 µM | 32.3 µM | 15.6 µM | 21.3 µM | 53.1 µM | 88 µM | 55.3 µM | 33.5 µM | 26.2 µM
17 | O=C(O)CC(NC(=O)Nc1ccc([N+](=O)[O-])cc1)C(=O)Nc1ccc([N+](=O)[O-])cc1 (stereo not given) | > 100 µM | > 100 µM | > 100 µM | > 100 µM | > 100 µM | > 100 µM | > 100 µM | > 100 µM | > 100 µM | > 100 µM
18 | CC(C)OC(=O)c1ccc(NCC2=CC(=O)C=CC2=O)cc1Cl | 9.92 µM | > 62.5 µM | 33.2 µM | > 60.1 µM | 47.6 µM | > 100 µM | 32 µM | 44.2 µM | 54.9 µM | 13.9 µM

Row | SMILES | TGI [1] | TGI [2] | TGI [3] | TGI [4] | TGI [5] | TGI [6] | TGI [7] | TGI [8] | TGI [9] | TGI [10]
19 | O=C(Nc1ccccc1)c1cc2c(cc1Cl)Sc1nccn1S2(=O)=O | 60.7 µM | > 75.6 µM | 54.4 µM | > 60 µM | > 81.2 µM | > 100 µM | 99.9 µM | > 100 µM | > 71.7 µM | > 100 µM
20 | Oc1ccc2c(c1)-c1c(c3cc(O)ccc3n1CCN1CCOCC1)CC2 | 38.2 µM | 59.8 µM | > 100 µM | 57.8 µM | 44.1 µM | 73.9 µM | 67.2 µM | > 100 µM | 49 µM | 57.9 µM
21 | CCCCC/C=C1/CC(CO)(COC(=O)CC(C(C)C)C(C)C)OC1=O (stereo not given) | 28.5 µM | 34.9 µM | 30.5 µM | 31.8 µM | 32.5 µM | 38.9 µM | 41.8 µM | 21.2 µM | 27.6 µM | 24.1 µM
22 | O=[N+]([O-])C(/C(Cl)=C(/Cl)N1CCOCC1)=C1\NCCO1 | > 100 µM | > 100 µM | > 100 µM | > 100 µM | > 100 µM | > 100 µM | > 100 µM | > 100 µM | > 100 µM | > 100 µM
23 | CC(C)(C)c1cc(C(O)(C(=O)O)C(=O)O)cc(C(C)(C)C)c1O | > 100 µM | > 100 µM | > 100 µM | > 100 µM | > 100 µM | > 100 µM | > 100 µM | > 100 µM | > 100 µM | > 100 µM
24 | CN(Cc1c2ccccc2cc2ccccc12)S(=O)(=O)c1ccc(-c2c3nc(c(-c4ccc(S(=O)(=O)N(C)Cc5c6ccccc6cc6ccccc56)cc4)c4ccc([nH]4)c(-c4ccc(S(=O)(=O)N(C)Cc5c6ccccc6cc6ccccc56)cc4)c4nc(c(-c5ccc(S(=O)(=O)N(C)Cc6c7ccccc7cc7ccccc67)cc5)c5ccc2[nH]5)C=C4)C=C3)cc1 | > 100 µM | > 100 µM | > 100 µM | > 100 µM | > 100 µM | > 100 µM | > 100 µM | > 100 µM | > 100 µM | > 100 µM
25 | CCCC1NC(C#N)(C#N)C(CCC)NC1(C#N)C#N (stereo not given) | > 27 µM | > 55.7 µM | > 65.9 µM | > 100 µM | > 89.7 µM | 15.2 µM | > 100 µM | > 100 µM | > 100 µM | > 100 µM
26 | O=S(=O)(c1ccccc1)n1c(C(O)c2ccncc2)cc2ccccc21 (stereo not given) | > 100 µM | > 100 µM | > 100 µM | 40.5 µM | > 100 µM | > 100 µM | > 100 µM | > 100 µM | > 100 µM | 44.7 µM
27 | [O-][n+]1onc2c3nn(-c4ccccc4)nc3ccc21 | > 100 µM | > 100 µM | 48.5 µM | > 100 µM | > 100 µM | > 100 µM | > 100 µM | > 100 µM | > 100 µM | > 100 µM
28 | O=C1COC(c2ccccc2O)=NN1CCCN1CCCC1 | > 100 µM | > 100 µM | > 100 µM | > 100 µM | > 100 µM | > 100 µM | > 100 µM | > 100 µM | > 100 µM | > 100 µM
29 | Cc1c(-c2ccccc2)c(C#N)c2nnn(-c3ccccc3)c(=O)n12 | > 100 µM | > 100 µM | > 100 µM | > 100 µM | > 100 µM | > 100 µM | > 100 µM | > 100 µM | > 100 µM | > 100 µM
30 | O=C(NCC1Nc2ccncc2S(=O)(=O)N1)c1ccc(Br)cc1 (stereo not given) | > 100 µM | > 100 µM | > 100 µM | > 100 µM | > 100 µM | > 100 µM | > 100 µM | > 100 µM | > 100 µM | > 100 µM
31 | O=C1NN=C(c2ccc(Cl)cc2)CC1C1C(=O)N(c2ccccc2)N=C1c1ccccc1 (stereo not given) | 54.4 µM | > 100 µM | > 100 µM | > 100 µM | > 100 µM | > 100 µM | 86.5 µM | > 100 µM | 82.9 µM | 56.6 µM
32 | CCCSc1cc(Cl)c(C)cc1S(=O)(=O)n1ccnc1OCCCN(C)C | > 100 µM | > 100 µM | > 100 µM | > 100 µM | > 100 µM | > 100 µM | > 100 µM | > 100 µM | > 100 µM | > 100 µM
33 | CC(=O)Nc1ccc(S(=O)(=O)Nc2nnc(S(N)(=O)=O)s2)cc1 | > 100 µM | > 100 µM | > 100 µM | > 100 µM | > 100 µM | > 100 µM | > 100 µM | > 100 µM | > 100 µM | > 100 µM
34 | CN(C(=O)C12C3C4(C(=O)O)C1(C(=O)N(C)C(C)(C)C)C1C2(C(=O)O)C3(C(=O)N(C)C(C)(C)C)C14C(=O)N(C)C(C)(C)C)C(C)(C)C (stereo not given) | > 100 µM | > 100 µM | > 100 µM | > 100 µM | > 100 µM | > 100 µM | > 100 µM | > 100 µM | > 100 µM | > 100 µM
35 | CC1(C)C2CCC1(CS(=O)(=O)Nc1ccccc1)C(=O)C2 (stereo not given) | > 100 µM | > 100 µM | > 100 µM | > 100 µM | > 100 µM | > 100 µM | > 100 µM | > 100 µM | > 100 µM | > 100 µM
